“Also recorded” adds a separate entry of the source. One block for each compound: values may come before it.
How the values were obtained:
[1] = tested on: IMiD-dependent neo-substrates; assay: TMT proteomics profiling of IMiD-dependent neo-substrates (hESC, Kelly, SK-N-DZ, MM1s); type: cell-based, human; conditions: SK-N-DZ cells, 0.1 µM CC-220, 5 h (Figure 1—figure supplement 1C)
Excerpt: We established a mass spectrometry-based workflow (Figure 1—figure supplement 1A) to detect IMiD-induced protein degradation in hESC.
Proteins were precipitated using methanol/chloroform.

ATP5C1 = assay: TMT proteomics SK-N-DZ cells: ATP5C1 abundance; conditions: 5 h vs DMSO, CC-220 0.1 µM
CISD2 = assay: TMT proteomics SK-N-DZ cells: CISD2 abundance; conditions: 5 h vs DMSO, CC-220 0.1 µM
MRPS5 = assay: TMT proteomics SK-N-DZ cells: MRPS5 abundance; conditions: 5 h vs DMSO, CC-220 0.1 µM
ZFP91 = ZFP91 (Homo sapiens, UniProt Q96JP5+Q96SW2); assay: TMT proteomics SK-N-DZ cells: ZFP91 abundance; conditions: 5 h vs DMSO, pomalidomide 1 µM, lenalidomide 5 µM, CC-220 0.1 µM, dBET57 1 µM
MRPL3 = assay: TMT proteomics SK-N-DZ cells: MRPL3 abundance; conditions: 5 h vs DMSO, CC-220 0.1 µM
SALL4 = assay: Western blot of SALL4: thalidomide with proteasome/NEDD8/UBA1 inhibitor co-treatment; conditions: Kelly, HEK293T, SK-N-DZ cells; thalidomide + 5 µM bortezomib, 5 µM MLN4924 or 0.5 µM MLN7243, 24 h
IMiD-dependent targets = assay: Rescue proteomics: pomalidomide with MLN4924 co-treatment in SK-N-DZ cells; conditions: 1 µM pomalidomide + 5 µM MLN4924, 5 h
[2] = molecular target: DDB1∆B-CRBN_(Spy-BodipyFL), Q16531;Q96SW2; assay: TR-FRET; conditions: terbium-streptavidin 4 nM, read off a plot
[3] = value at the highest DDB1∆B-CRBN concentration (about 12.8 µM), SALL4 ZnF1-2 100 nM, thalidomide 50 µM, parent: est. 45

ZFP91, sequence (Q96JP5 2-570 limits assumed): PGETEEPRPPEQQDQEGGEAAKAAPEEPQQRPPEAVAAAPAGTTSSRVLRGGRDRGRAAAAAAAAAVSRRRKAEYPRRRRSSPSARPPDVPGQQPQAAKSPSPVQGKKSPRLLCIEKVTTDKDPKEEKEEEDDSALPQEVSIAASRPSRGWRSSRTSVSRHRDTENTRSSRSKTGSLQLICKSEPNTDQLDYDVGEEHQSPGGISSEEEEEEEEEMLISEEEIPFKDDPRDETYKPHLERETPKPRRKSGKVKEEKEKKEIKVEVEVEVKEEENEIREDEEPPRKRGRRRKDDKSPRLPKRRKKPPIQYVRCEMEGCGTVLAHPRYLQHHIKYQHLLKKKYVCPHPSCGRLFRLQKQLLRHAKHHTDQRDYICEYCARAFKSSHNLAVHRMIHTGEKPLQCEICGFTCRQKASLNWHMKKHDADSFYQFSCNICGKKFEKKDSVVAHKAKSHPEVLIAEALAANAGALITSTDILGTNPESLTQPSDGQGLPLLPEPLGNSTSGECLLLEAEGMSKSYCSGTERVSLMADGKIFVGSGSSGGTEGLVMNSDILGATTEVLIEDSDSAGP
ZFP91, sequence (Q96SW2 whole entry): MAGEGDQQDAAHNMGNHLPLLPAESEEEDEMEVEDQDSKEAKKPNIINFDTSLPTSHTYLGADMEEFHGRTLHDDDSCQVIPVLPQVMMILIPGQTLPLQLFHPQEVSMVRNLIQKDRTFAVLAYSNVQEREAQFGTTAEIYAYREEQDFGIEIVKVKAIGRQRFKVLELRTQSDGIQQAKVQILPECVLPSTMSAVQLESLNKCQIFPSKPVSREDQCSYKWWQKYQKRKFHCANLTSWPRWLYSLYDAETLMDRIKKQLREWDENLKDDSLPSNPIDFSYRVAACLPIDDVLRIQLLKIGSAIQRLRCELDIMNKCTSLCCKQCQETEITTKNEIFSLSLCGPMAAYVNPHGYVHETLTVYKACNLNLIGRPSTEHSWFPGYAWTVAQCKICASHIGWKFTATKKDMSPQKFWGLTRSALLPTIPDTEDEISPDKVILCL
ZFP91, sequence (Q16531 whole entry partner): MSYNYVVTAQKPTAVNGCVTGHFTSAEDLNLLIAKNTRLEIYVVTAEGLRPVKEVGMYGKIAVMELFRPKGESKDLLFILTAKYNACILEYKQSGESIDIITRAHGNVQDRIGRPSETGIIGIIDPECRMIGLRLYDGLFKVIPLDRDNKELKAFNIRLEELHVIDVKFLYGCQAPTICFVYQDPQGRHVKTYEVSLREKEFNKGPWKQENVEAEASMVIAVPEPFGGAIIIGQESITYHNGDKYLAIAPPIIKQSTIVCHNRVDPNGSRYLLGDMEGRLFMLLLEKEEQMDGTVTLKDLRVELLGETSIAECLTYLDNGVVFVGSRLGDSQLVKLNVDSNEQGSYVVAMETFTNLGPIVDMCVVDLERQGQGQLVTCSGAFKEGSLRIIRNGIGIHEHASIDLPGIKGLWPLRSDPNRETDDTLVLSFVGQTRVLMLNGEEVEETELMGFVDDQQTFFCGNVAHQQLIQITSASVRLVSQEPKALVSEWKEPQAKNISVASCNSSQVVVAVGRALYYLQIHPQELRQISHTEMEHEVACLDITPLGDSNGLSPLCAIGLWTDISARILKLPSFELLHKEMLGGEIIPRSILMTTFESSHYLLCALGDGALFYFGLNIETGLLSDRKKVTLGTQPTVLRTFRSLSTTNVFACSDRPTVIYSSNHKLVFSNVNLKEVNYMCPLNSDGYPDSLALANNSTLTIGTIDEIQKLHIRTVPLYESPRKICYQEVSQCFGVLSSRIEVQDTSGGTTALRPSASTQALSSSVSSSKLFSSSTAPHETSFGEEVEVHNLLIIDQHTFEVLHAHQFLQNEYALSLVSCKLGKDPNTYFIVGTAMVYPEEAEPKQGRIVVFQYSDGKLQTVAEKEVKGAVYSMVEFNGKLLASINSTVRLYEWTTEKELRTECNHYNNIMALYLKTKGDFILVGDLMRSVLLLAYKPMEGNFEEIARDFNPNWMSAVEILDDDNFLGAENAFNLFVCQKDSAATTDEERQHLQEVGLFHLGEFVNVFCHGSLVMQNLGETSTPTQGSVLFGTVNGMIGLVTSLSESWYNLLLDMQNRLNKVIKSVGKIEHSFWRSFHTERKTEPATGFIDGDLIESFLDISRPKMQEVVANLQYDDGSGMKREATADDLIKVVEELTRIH

- logFC ZFP91 (ZFP91): -2.809
Compound: O=C1CC[C@H](N2Cc3c(OCc4ccc(CN5CCOCC5)cc4)cccc3C2=O)C(=O)N1 [CC-220]
- induction of degradation of ZnF targets including SALL4 [1]: effective inducers of ZnF targets including SALL4 degradation
- logFC ATP5C1 (ATP5C1): -0.1591
- logFC CISD2 (CISD2): -0.1946
- logFC MRPS5 (MRPS5): -0.1562
- logFC MRPL3 (MRPL3): -0.1878

Compound: NS(=O)(=O)OC[C@@H]1C[C@@H](n2ccc3c(N[C@H]4CCc5ccccc54)ncnc32)C[C@@H]1O [MLN4924]
- effect of co-treatment on IMiD-induced SALL4 degradation (SALL4): abrogated
- effect of co-treatment on IMiD-induced degradation of targets (IMiD-dependent targets): abrogated the degradation of all IMiD-dependent targets; also recorded: fully abrogated

Compound: NS(=O)(=O)OC[C@H]1C[C@@H](Nc2ccnc3cc(-c4cccc(SC(F)(F)F)c4)nn23)[C@H](O)[C@@H]1O [MLN7243]
- effect of co-treatment on IMiD-induced SALL4 degradation (SALL4): abrogated

Compound: CC(C)C[C@H](NC(=O)[C@H](Cc1ccccc1)NC(=O)c1cnccn1)B(O)O [bortezomib]
- effect of co-treatment on IMiD-induced SALL4 degradation (SALL4): abrogated

- response [2, 3]: 6 520/490
Compound: _(Strep-BirA)hsSALL4_(378-438) (ZnF1-2) (from UniProt Q9UJQ4) G416N

- response [2, 3]: 45 520/490
- response ([2]; value at the highest lenalidomide dose (log[Len] about -4.4 M), DDB1∆B-CRBN 200 nM, SALL4 ZnF1-2 100 nM, parent: est. 2.6): 1.6 520/490
- response ([2]; value at the highest pomalidomide dose (log[Pom] about -4.4 M), DDB1∆B-CRBN 200 nM, SALL4 ZnF1-2 100 nM, parent: est. 4.1): 2.6 520/490
- response ([2]; value at the highest thalidomide dose (log[Thal] about -4.4 M), DDB1∆B-CRBN 200 nM, SALL4 ZnF1-2 100 nM, parent: est. 3.7): 2.2 520/490
Compound: _(Strep-BirA)hsSALL4_(378-438) (ZnF1-2) (from UniProt Q9UJQ4) S388N

- response ([2]; value at the highest lenalidomide dose (log[Len] about -4.4 M), DDB1∆B-CRBN 200 nM, SALL4 ZnF2 100 nM, parent: est. 0.47): 0.075 520/490
- response ([2]; value at the highest pomalidomide dose (log[Pom] about -4.4 M), DDB1∆B-CRBN 200 nM, SALL4 ZnF2 100 nM, parent: est. 0.97): 0.09 520/490
Compound: _(Strep-BirA)hsSALL4_(402-436) (ZnF2) (from UniProt Q9UJQ4) G416A

- response ([2]; value at the highest thalidomide dose (log(Thal) about -4.5 M), DDB1∆B-CRBN 1 µM, SALL4 ZnF4 100 nM, parent: est. 0.27): 0.19 520/490
Compound: _(Strep-BirA)hsSALL4_(590-618) (ZnF4) (from UniProt Q9UJQ4) Q595H

— article PMC6156078, “Thalidomide promotes degradation of SALL4, a transcription factor implicated in Duane Radial Ray syndrome” (eLife, 2018)
